The molecules below were run on NBD1 (assay: Aggregation analysis of NBD1 thermal stability by differential static light scattering (DSLS)). Conditions: compound at 100 μM; ΔTagg versus DMSO control.
Assay type: binding, Human
Method: Purified recombinant NBD1 was produced using previously described methods (A. Schmidt, J. L. Mendoza, P. J. Thomas (2011) Biochemical and Biophysical Approaches to Probe CFTR Structure (365-376) M. D. Amaral, K. Kunzelmann (eds.), Cysic Fibrosis, Methods in Molecular Biology 741, Springer Science+Business Media). The effect of test compounds on thermal stability of NBD1 was evaluated by differential static light scattering (DSLS) using the Harbinger Stargazer-384 instrument (Epiphyte Three, Toronto, Canada). Test compounds were dissolved and diluted to desired concentrations in 100% DMSO. The compounds or DMSO controls (100 nL) were stamped into wells of a […] low volume optical plate (Corning Inc., Corning, NY) using the Echo 555 acoustic liquid handler (Labcyte Inc., San Jose, CA).
NBD1 protein was diluted to 0.2 mg/ml in S200 buffer (50 mM Tris-HCl, 150 mM NaCl, 5 mM MgCl2, 2 mM ATP, 2 mM DTT, pH7.6) containing 1% glycerol. 10 uL of protein solution was aliquoted into the 384-well plate harboring the test compounds and 10 uL mineral oil was overlayed onto the protein solution, using the epMotion robotic liquid handler (Eppendorf North America, Hauppauge, NY). After placing into the Stargazer instrument, the plate was heated at 1° C. per minute to 70° C. Images were captured from 25° C. to 70° C. every 0.5° C. At the end of the experiment run, instrument software integrated image files and analyzed data automatically. A […] regression curve was generated for each well, representing the increase in light scattering over time. A temperature of aggregation (Tagg) was calculated based on the inflection point of the curve. To better compare data across experiments the average Tagg for DMSO control wells was calculated and subtracted from values for wells containing compounds to obtain a “ΔTagg” value. These ΔTagg values reflect stabilizing efficacy of the compounds.

Structure (SMILES) | DSLS NBD1/3D Human Stability delta-T (° C.) @ 100 (μM)
CC(O)(c1ccccc1)c1c[nH]c(-c2cc(Oc3c(F)cc4[nH]ccc4c3CC3SC(=O)NC3=O)ccc2F)n1 (centres unmarked) [Example 1, 5-((6-Fluoro-5-(4-fluoro-3-(4-(1-hydroxy-1-phenylethyl)-1H-imidazol-2-yl)phenoxy)-1H-indol-4-yl)methyl)thiazolidine-2,4-dione] | A (T ≥8° C.)
CS(=O)(=O)c1c(Oc2cccc(-c3ncc(C(N)c4ccccc4)[nH]3)c2)c(F)cc2[nH]ccc12 (centres unmarked) [Example 15, (2-(3-((6-Fluoro-4-(methylsulfonyl)-1H-indol-5-yl)oxy)phenyl)-1H-imidazol-5-yl)(phenyl)methanamine] | A (T ≥8° C.)
O=C(O)Cc1c[nH]c2ccc(Oc3cccc(-c4nnc(Cc5ccccc5)[nH]4)c3)cc12 [Example 30, 2-(5-(3-(5-Benzyl-4H-1,2,4-triazol-3-yl)phenoxy)-1H-indol-3-yl)acetic acid] | C (≤4° C.)
c1ccc(Cc2nnc(-c3cccc(Oc4ccc5[nH]cc6c5c4CNCC6)c3)[nH]2)cc1 [Example 46, 9-(3-(5-Benzyl-4H-1,2,4-triazol-3-yl)phenoxy)-2,3,4,6-tetrahydro-1H-azepino[5,4,3-cd]indole] | C (≤4° C.)
NC(=O)CC(c1cccc(-c2nnc(Cc3ccccc3)[nH]2)c1)c1ccc2[nH]ccc2c1 (centres unmarked) [Example 38, 3-(3-(5-Benzyl-4H-1,2,4-triazol-3-yl)phenyl)-3-(1H-indol-5-yl)propanamide] | C (≤4° C.)
CC(O)(c1ccccc1)c1cnc(-c2cccc([S+]([O-])c3ccc4[nH]ccc4c3)c2)[nH]1 (centres unmarked) [Example 40, 1-(2-(3-((1H-Indol-5-yl)sulfinyl)phenyl)-1H-imidazol-5-yl)-1-phenylethan-1-ol] | C (≤4° C.)
CC(O)(c1ccccc1)c1c[nH]c(-c2cc(Oc3c(F)cc4[nH]ccc4c3S(C)(=N)=O)ccc2F)n1 (centres unmarked) [Example 6, (6-fluoro-5-(4-fluoro-3-(4-(1-hydroxy-1-phenylethyl)-1H-imidazol-2-y1)phenoxy)-1H-indol-4-y1)(imino)(methyl)-16-sulfanone] | A (T ≥8° C.)
CNS(=O)(=O)c1c(Oc2ccc(F)c(-c3ncc(C(C)(O)c4ccccc4)[nH]3)c2)c(F)cc2[nH]ccc12 (centres unmarked) [Example 22, 6-Fluoro-5-(4-fluoro-3-(5-(1-hydroxy-1-phenylethyl)-1H-imidazol-2-yl)phenoxy)-N-methyl-1H-indole-4-sulfonamide] | B (4-8° C.)
CC(O)(c1ccccc1)c1c[nH]c(-c2cc(Oc3c(F)cc4[nH]ccc4c3CC(F)F)ccc2F)n1 (centres unmarked) [Example 25, 1-(2-(5-((4-(2,2-Difluoroethyl)-6-fluoro-1H-indol-5-yl)oxy)-2-fluorophenyl)-1H-imidazol-4-yl)-1-phenylethan-1-ol] | B (4-8° C.)
[O-][S+](c1ccccc1)c1cnc(-c2cccc(Oc3ccc4[nH]ccc4c3)c2)[nH]1 (centres unmarked) [Example 31, 5-(3-(5-(Phenylsulfinyl)-1H-imidazol-2-yl)phenoxy)-1H-indole] | B (4-8° C.)
CC(=O)NCc1c(Oc2cccc(-c3nnc(Cc4ccccc4)[nH]3)c2)ccc2[nH]ccc12 [Example 50, N-((5-(3-(5-Benzyl-4H-1,2,4-triazol-3-yl)phenoxy)-1H-indol-4-yl)methyl)acetamide] | B (4-8° C.)
O=C1NCc2c[nH]c3ccc(Oc4cccc(-c5nnc(Cc6ccccc6)[nH]5)c4)c1c23 [Example 42, 6-(3-(5-Benzyl-4H-1,2,4-triazol-3-yl)phenoxy)-3,4-dihydropyrrolo[4,3,2-de]isoquinolin-5(1H)-one] | C (≤4° C.)
Cc1c(Oc2ccc(F)c(-c3ncc(C(C)(CCC(=O)O)c4ccccc4)[nH]3)c2)c(F)cc2[nH]ccc12 (centres unmarked) [Example 13, 4-(2-(2-Fluoro-5-((6-fluoro-4-methyl-1H-indol-5-yl)oxy)phenyl)-1H-imidazol-5-yl)-4-phenylpentanoic acid] | B (4-8° C.)
c1ccc(Cc2coc(-c3cccc(Oc4ccc5[nH]ccc5c4)c3)n2)cc1 [Example 47, 2-(3-((1H-Indol-5-yl)oxy)phenyl)-4-benzyloxazole] | C (≤4° C.)
NC(c1ccccc1)c1nnc(-c2cccc(Oc3ccc4[nH]ccc4n3)c2)[nH]1 (centres unmarked) [Example 17, (5-(3-((1H-Pyrrolo[3,2-b]pyridin-5-yl)oxy)phenyl)-4H-1,2,4-triazol-3-yl)(phenyl)methanamine] | B (4-8° C.)
COCC[S+]([O-])c1c(Oc2cccc(-c3ncc(C(C)(O)c4ccccc4)[nH]3)c2)c(F)cc2[nH]ccc12 (centres unmarked) [Example 62, 1-(2-(3-((6-Fluoro-4-((2-methoxyethyl)sulfinyl)-1H-indol-5-yl)oxy)phenyl)-1H-imidazol-5-yl)-1-phenylethan-1-ol] | B (4-8° C.)
CN(C)CCNC(c1ccccc1)c1nnc(-c2cccc(Oc3ccc4[nH]ccc4n3)c2)[nH]1 (centres unmarked) [Example 24, N1-((5-(3-((1H-Pyrrolo[3,2-b]pyridin-5-yl)oxy)phenyl)-4H-1,2,4-triazol-3-yl)(phenyl)methyl)-N2,N2-dimethylethane-1,2-diamine] | B (4-8° C.)
CC(O)c1c(Oc2cccc(-c3nc(C(C)(O)c4ccccc4)c[nH]3)c2)c(F)cc2[nH]ccc12 (centres unmarked) [Example 66, 1-(2-(3-((6-Fluoro-4-(1-hydroxyethyl)-1H-indol-5-yl)oxy)phenyl)-1H-imidazol-4-yl)-1-phenylethan-1-ol] | A (T ≥8° C.)
O=C(c1cccc(-c2nnc(Cc3ccccc3)[nH]2)c1)c1ccc2[nH]ccc2c1 [Example 34, (3-(5-Benzyl-4H-1,2,4-triazol-3-yl)phenyl)(1H-indol-5-yl)methanone] | C (≤4° C.)
O=C(O)c1c(Oc2cccc(-c3nc(C(O)(c4ccccc4)C(F)(F)F)n[nH]3)c2)ccc2[nH]ccc12 (centres unmarked) [Example 67, 5-(3-(3-(2,2,2-Trifluoro-1-hydroxy-1-phenylethyl)-1H-1,2,4-triazol-5-yl)phenoxy)-1H-indole-4-carboxylic acid] | C (≤4° C.)
OCc1c(Oc2cccc(-c3nc(Cc4ccccc4)cs3)c2)ccc2[nH]ccc12 [Example 48, (5-(3-(4-Benzylthiazol-2-yl)phenoxy)-1H-indol-4-yl)methanol] | C (≤4° C.)
O=S(=O)(c1ccccc1)c1cnc(-c2cccc(Oc3ccc4[nH]ccc4c3)c2)[nH]1 [Example 32, 5-(3-(5-(Phenylsulfonyl)-1H-imidazol-2-yl)phenoxy)-1H-indole] | B (4-8° C.)
CN1C(=O)SC(Cc2c(Oc3ccc(F)c(-c4nc(C(C)(O)c5ccccc5)c[nH]4)c3)c(F)cc3[nH]ccc23)C1=O (centres unmarked) [Example 70, 5-((6-fluoro-5-(4-fluoro-3-(4-(1-hydroxy-1-phenylethyl)-1H-imidazol-2-yl)phenoxy)-1H-indol-4-yl)methyl)-3-methylthiazolidine-2,4-dione] | B (4-8° C.)
CC(=O)c1c(Oc2cccc(-c3nc(C(C)(O)c4ccccc4)c[nH]3)c2)c(F)cc2[nH]ccc12 (centres unmarked) [Example 65, 1-(6-Fluoro-5-(3-(4-(1-hydroxy-1-phenylethyl)-1H-imidazol-2-yl)phenoxy)-1H-indol-4-yl)ethan-1-one] | A (T ≥8° C.)
CC(O)(c1ccccc1)c1nnc(-c2cccc(Oc3ccc4[nH]ccc4n3)c2)[nH]1 (centres unmarked) [Example 16, 1-(5-(3-((1H-Pyrrolo[3,2-b]pyridin-5-yl)oxy)phenyl)-4H-1,2,4-triazol-3-yl)-1-phenylethan-1-ol] | B (4-8° C.)
O=C(O)Cc1c(Oc2cccc(-c3nnc(Cc4ccccc4)[nH]3)c2)ccc2[nH]ccc12 [Example 11, 2-(5-(3-(5-Benzyl-4H-1,2,4-triazol-3-yl)phenoxy)-1H-indol-4-yl)acetic acid] | B (4-8° C.)
CC(O)(c1ccccc1)c1cnc(-c2cccc(Sc3ccc4[nH]ccc4c3)c2)[nH]1 (centres unmarked) [Example 39, 1-(2-(3-((1H-Indol-5-yl)thio)phenyl)-1H-imidazol-5-yl)-1-phenylethan-1-ol] | C (≤4° C.)
CS(=O)(=O)NC(=O)Cc1c(Oc2cccc(-c3nnc(Cc4ccccc4)[nH]3)c2)ccc2[nH]ccc12 [Example 56, 2-(5-(3-(5-Benzyl-4H-1,2,4-triazol-3-yl)phenoxy)-1H-indol-4-yl)-N-(methylsulfonyl)acetamide] | A (T ≥8° C.)
CS(=O)(=O)NC(=O)CCc1c(Oc2cccc(-c3nnc(Cc4ccccc4)[nH]3)c2)ccc2[nH]ccc12 [Example 59, 3-(5-(3-(5-Benzyl-4H-1,2,4-triazol-3-yl)phenoxy)-1H-indol-4-yl)-N-(methylsulfonyl)propanamide] | B (4-8° C.)

Reference: patent US20240239784A1, “INDOLE COMPOUNDS AND METHODS OF USE” (GENZYME CORPORATION, priority 2021, published 2024)
